Entries after “also recorded” stand apart in the source; their conditions may differ.
What was measured:
[1] = system: corneal endothelial cells with Fuchs' endothelial corneal dystrophy (iFECD); assay: Annexin V positive apoptosis cells by flow cytometry, iFECD; assay type: cell-based, human; settings: for TGFβ2-induced increase of annexin V positive apoptotic cells, effect of inhibitor: TGFβ2 plus inhibitor, 24 hours
Protocol: (§1) The human corneal endothelial cells (iHCEC) or corneal endothelial cells with Fuchs' endothelial corneal dystrophy (iFECD) prepared in the Preparation Examples were seeded on a culture dish coated with FNC Coating Mix and culture for about 3 days until reaching sub-confluence under the condition of 5% CO2 at 37° C. Furthermore, TGFβ2 and SB431542 were added and the cells were incubated for 24 hours under the condition of 5% CO2 at 37° C. Cells were peeled off with ACCUMAX. Annexin V or PI positive cells were measured by using Annexin V and PI and a flow cytometer (FACS Aria II (BD Biosciences, Franklin Lakes, N.J.)) with MEBCYTO Apoptosis Kit (Annexin V-FITC Kit) 100 test (4700, MEDICAL & BIOLOGICAL LABORATORIES).
The human corneal endothelial cells (iHCEC) or corneal endothelial cells with Fuchs' endothelial corneal dystrophy (iFECD) prepared in the Preparation Examples were seeded on a culture dish coated with FNC Coating Mix and culture for about 3 days until reaching sub-confluence under the condition of 5% CO2 at 37° C. Furthermore, TGFβ2, SB431542 and TGFβ signal inhibitor A-83-01 (Wako, Osaka; catalog No: 018-22521), ALK5 inhibitor (Wako catalog No: 012-23021; CAS No. 446859-33-2; 2-(3-(6-methylpyridine-2-yl)-1H-pyrazole-4-yl)-1,5-naphthyridine) were added and the cells were incubated for 24 hours under the condition of 5% CO2 at 37° C. The cells were peeled off with ACCUMAX. Annexin V or PI positive cells were measured by using annexin V and propidium iodide (PI) with a flow cytometer (FACS Aria II (BD Biosciences, Franklin Lakes, N.J.)).

[2] = system: corneal endothelial cells with Fuchs' endothelial corneal dystrophy (iFECD); assay type: cell-based, human
Protocol: The human corneal endothelial cells (iHCEC) or corneal endothelial cells with Fuchs' endothelial corneal dystrophy (iFECD) prepared in the Preparation Examples were seeded on a culture dish coated with FNC Coating Mix and cultured for about 3 days until reaching sub-confluence under the condition of 5% CO2 at 37° C. Furthermore, TGFβ2, SB431542 and TG were added and the cells were incubated for 24 hours under the condition of 5% CO2 at 37° C. Cell morphology and apoptosis were then observed under a phase difference microscope.

iHCEC = assay: Western blot of apoptosis associated proteins after staurosporine stimulation; assay type: cell-based, human; settings: 15 minutes to 4 hours after staurosporine stimulation
Protocol: Caspase 9, caspase 3 and poly(ADP-ribose) polymerase (PARP) were assessed by Western blot in iHCEC stimulated with a mitochondrial stress stimulant staurosporine (abcam, ab120056) in order to assess the involvement of mitochondrial failure in apoptosis.
A stimulation was applied with staurosporine to induce a mitochondrial disorder to examine the chronological change.
Western blot was performed in accordance with the descriptions in Example 2. The following antibodies were used in addition to those used in Example 2.

[3] = system: human corneal endothelial cells (iHCEC); assay: Annexin V positive apoptosis cells by flow cytometry, iHCEC; assay type: cell-based; settings: after TGFβ stimulation (11.1±0.6% before stimulation)
Protocol: Further, it is known as the knowledge of the inventors that PERK phosphorylation and ATF6 cleavage were increased more in iFECD than in iHCEC by TGFβ. In order to investigate the involvement of TGFβ signaling in apoptosis, cells were treated with TGFβ and annexin V positive apoptosis cells were assessed by flow cytometry. […] Meanwhile, it is known that TGFβ increases annexin V positive cells after a stimulation in iFECD relative to the number prior to a TGFβ stimulation (as exemplary data, 19.4±1.4% prior to stimulation and 29.9±1.5% after stimulation, p<0.01). In addition thereto, it is shown that expression of the chaperone GRP78 is elevated. Further, it is shown that the expression of CHOP is elevated and apoptosis is induced by ER stress. […]
as §1, with “Furthermore, TGFβ2 and SB431542 were added and the cells were incubated for 24 hours under the condition of 5% CO2 at 37° C. Cells were peeled off with ACCUMAX.” left out

iHCEC and iFECD = assay: Western blot of ER stress markers after TGFβ2 stimulation; assay type: cell-based, human
Protocol: Western blot: Electrophoresis was applied to a protein extracted and obtained in a RIPA buffer with 7.5% polyacrylamide. The isolated protein was transferred onto a PVDF membrane (PALL LIFE SCIENCE (catalog number: EH-2222)). A Tris buffered saline (10 mM Tris-HCl, pH 7.4; 100 mM NaCl) (TBS-T) comprising 0.1% (vol/vol) polyethylene sorbitan monolaurate (Nacalai Tesque, catalog number: 28353-85) complemented with 5% NON FAT DRY MILK (CELL SIGNALING, catalog number: 9999) and a blotted membrane were incubated for 1 hour for a blocking operation. The membrane was immersed in anti-GRP78 antibodies diluted 1000 fold with TBS-T complemented with 5% NON FAT DRY MILK and reacted for 1 hour at room temperature. After washing three times with TBS-T and incubating with a mouse-IgG antibody HRP complex (CELL SIGNALING (catalog number: 7074P2)) and washing, a band illuminated with an ECL-ADVAVCE Western Blotting Detection Kit (GE Healthcare Japan (catalog number: RPN2135V)) was detected.
Cells were stimulated for 24 hours with 10 ng/ml TGFβ2 (R&D SYSTEMS). Further, cells stimulated for 24 hours with 10 μM of thapsigargin (TG; Alomone Laboratories Ltd., Jerusalem, Israel) were used as a positive control of ER stress.
Cells were stimulated with 10 ng/ml TGFβ2 (R&D SYSTEMS). Further, cells stimulated with thapsigargin (TG; Alomone Laboratories Ltd., Jerusalem, Israel) were used as a positive control of ER stress.
In the present Example, a Western blot was performed as in Example 2 to investigate the expression of the molecular chaperone GRP78 and CHOP involved with apoptosis due to an ER stress response in order to confirm that a stronger ER stress is elicited by TGF-β in Fuchs' endothelial corneal dystrophy. Further, expression of phosphorylated PERK and ATF6 involved in stress signaling on an endoplasmic reticulum membrane was also examined therewith. A stimulation was applied with 10 ng/ml of TGFβ2 (R&D SYSTEMS). The chronological change was also examined therewith.

[4] = system: corneal endothelial cells with Fuchs' endothelial corneal dystrophy (iFECD); assay: Aggresome measurement by flow cytometry (ProteoStat Aggresome Detection Kit); assay type: cell-based, human; settings: TGFβ2 10 ng/ml, 24 hours
Protocol: 1×10^5 human corneal endothelial cells (iHCEC) or corneal endothelial cells with Fuchs' endothelial corneal dystrophy (iFECD) were seeded onto a 6 well plate coated with an FNC Coating Mix and cultured for about 2 days until reaching sub-confluence under the condition of 5% CO2 at 37° C. Furthermore, TGFβ2 (10 ng/ml; R&D SYSTEMS) was added and the cells were incubated for 24 hours under the condition of 5% CO2 at 37° C. The cells were then peeled off with ACCUMAX™ (Funakoshi), and aggresomes were measured with a flow cytometer (FACS Aria II (BD Biosciences, Franklin Lakes, N.J.) by using a ProteoStat® Aggresome Detection Kit: (EZN-51035-K100, Enabling Discovery in Life Science®).

[5] = 10 ng/ml TGFβ2, 3 and 6 hours, more significant in iFECD than iHCEC

Cc1cccc(-c2nn(C(=S)Nc3ccccc3)cc2-c2ccnc3ccccc23)n1 [A-83-01, 3-(6-methyl-2-pyridinyl)-N-phenyl-4-(4-quinolinyl)-1H-pyrazole-1-carbothioamide]
TGFβ2-induced increase of annexin V positive apoptotic cells, effect of inhibitor [1]: suppress apoptotic cells

Cc1cccc(-c2n[nH]cc2-c2ccc3ncccc3n2)n1 [ALK5 inhibitor, 2-(3-(6-methylpyridine-2-yl)-1H-pyrazole-4-yl)-1,5-naphthyridine]
TGFβ2-induced increase of annexin V positive apoptotic cells, effect of inhibitor [1]: suppress apoptotic cells

NC(=O)c1ccc(-c2nc(-c3ccc4c(c3)OCO4)c(-c3ccccn3)[nH]2)cc1 [SB431542, 4-[4-(1,3-benzodioxole-5-yl)-5-(2-pyridinyl)-1H-imidazole-2-yl]benzamide]
floating cells induced by TG (thapsigargin), effect of inhibitor ([2]; iFECD, TG stimulation, 24 hours): not cancelled
floating cells (cell damage) induced by TGFβ2, effect of inhibitor ([2]; iFECD, TGFβ2 stimulation, 24 hours): cancelled
TGFβ2-induced increase of annexin V positive apoptotic cells, effect of inhibitor [1]: cancelled; also recorded: suppresses apoptosis

C/C=C(/C)C(=O)O[C@H]1C(C)=C2[C@H]([C@@H]1OC(=O)CCCCCCC)[C@@](C)(OC(C)=O)C[C@H](OC(=O)CCC)[C@@]1(O)[C@H]2OC(=O)[C@@]1(C)O [TG, thapsigargin]
cell damage / floating cells caused by the stimulant [2]: large amount of floating cells

CN[C@@H]1C[C@H]2O[C@@](C)([C@@H]1OC)n1c3ccccc3c3c4c(c5c6ccccc6n2c5c31)C(=O)NC4 [staurosporine]
activation of caspase 9, caspase 3 and PARP (iHCEC): activate

TGFβ2: transforming growth factor-β2 (R&D SYSTEMS) used to stimulate cells at 10 ng/ml
cell damage / floating cells caused by the stimulant [2]: damaged
percentage of annexin V positive apoptosis cells after stimulation [3]: 12.3±0.5%
expression of CHOP (iHCEC and iFECD; 10 ng/ml TGFβ2, 3 and 6 hours): increases
expression of the chaperone GRP78 (iHCEC and iFECD; 10 ng/ml TGFβ2, 3 and 6 hours): increases
expression of ATF6 (iHCEC and iFECD; [5]): promotes expression
phosphorylation of PERK (ER stress sensor) (iHCEC and iFECD; [5]): promotes phosphorylation
expression of chaperone GRP78 and stress sensor IRE1 (iHCEC and iFECD; 10 ng/ml TGFβ2, iFECD and normal cells, level high especially in iFECD): induced
percentage of annexin V positive apoptosis cells after stimulation ([1]; after TGFβ stimulation (19.4±1.4% prior to stimulation), p<0.01): 29.9±1.5%
increase of aggresomes (fluorescence intensity) [4]: 1.11 fold

Reference: patent US11382904B2, “Therapeutic drug for diseases related to endoplasmic reticulum cell death in corneal endothelium” (KYOTO PREFECTURAL PUBLIC UNIVERSITY CORPORATION, priority 2013, dated 2022)
